Several values for one entry are separate records, joined by “and”; a condition that tells them apart may be missing. Identical values can stand only once.
Columns and labels:
L1210 [1] = test: Tested for inhibition of L1210 cell growth by the compound at a dose of 30 uM and after 48 hr; format: functional; conditions: Mus musculus, L1210, 48 h
L1210 [2] = test: Tested for inhibition of L1210 cell growth by the compound after 96 hr; format: functional, cell-based; conditions: Mus musculus, L1210, 96 h
L1210 [3] = test: Tested for inhibition of L1210 cell growth by the compound after 48 hr; format: functional, cell-based; conditions: Mus musculus, L1210, 48 h
L1210 [4] = test: Tested for inhibition of L1210 cell growth by the compound at a dose of 50 uM and after 48 hr; format: functional; conditions: Mus musculus, L1210, 48 h
L1210 [5] = test: Tested for L1210 cell growth as percent of control by the compound at a dose of 100 uM and after 48 hr; conditions: Mus musculus, L1210, 48 h
L1210 [6] = test: Tested for inhibition of L1210 cell growth by the compound at a dose of 30 uM and after 96 hr; format: functional; conditions: Mus musculus, L1210, 96 h
L1210 [7] = test: Tested for inhibition of L1210 cell growth by the compound at a dose of 25 uM and after 48 hr; No inhibition at 25 uM; format: functional, cell-based; conditions: Mus musculus
L1210 [8] = test: Tested for inhibition of L1210 cell growth by the compound at a dose of 25 uM and after 96 hr; No inhibition at 25 uM; format: functional, cell-based; conditions: Mus musculus
L1210 [9] = test: Tested for inhibition of L1210 cell growth by the compound at a dose of >12.5 uM and after 96 hr; conditions: Mus musculus
L1210 [10] = test: Tested for inhibition of L1210 cell growth by the compound at a dose of >12.5 uM and after 48 hr; conditions: Mus musculus
L1210 [11] = test: Tested for inhibition of L1210 cell growth by the compound at a dose of 50 uM and after 96 hr; No inhibition at 50 uM; format: functional, cell-based; conditions: Mus musculus
L1210 [12] = test: Tested for inhibition of L1210 cell growth by the compound at a dose of 50 uM and after 48 hr; No inhibition at 50 uM; format: functional, cell-based; conditions: Mus musculus
L1210 [13] = test: Percent of clonogenic L1210 cells to relative to control was determined after the treatment with the compound of 10 uM was for 96h; format: functional, Mus musculus
Mus musculus [14] = organism: Mus musculus; test: Mean survival of mice with L1210 leukemia was evaluated on day 60 with no treatment; format: functional
Mus musculus [15] = test: Mean survival of mice with L1210 leukemia was evaluated on day 60 at 10 mg/kg by ip administration (schedule: Q8H,1-6days); format: functional; conditions: route intraperitoneal
L1210 [16] = test: Percent of clonogenic L1210 cells to relative to control was determined after the treatment with the compound of 10 uM was for 24 hr; format: functional, Mus musculus
Mus musculus [17] = test: % increase in life span in mice was calculated at 5 mg/kg by ip administration; format: functional; conditions: route intraperitoneal
Mus musculus [18] = test: Mean survival of mice with L1210 leukemia was evaluated on day 60 at 20 mg/kg by ip administration (schedule: Q8H,1-3days); format: functional; conditions: route intraperitoneal
[19] = Ratio of survivors to the total mice in the test group; 0/6; format: functional
L1210 [20] = test: Percent of clonogenic L1210 cells to relative to control was determined after the treatment with the compound of 10 uM was for 72 hr; format: functional, Mus musculus
Mus musculus [21] = test: Mean survival of L1210 leukemic mice was evaluated on day 60 at 15 mg/kg by ip administration (schedule: Q8H,1-6days); format: functional; conditions: route intraperitoneal
[22] = Ratio of survivors to the total mice in the test group; 0/8; format: functional
Mus musculus [23] = test: Mean survival of mice with L1210 leukemia on day 60 at 5 mg/kg by ip administration (schedule: Q8H,1-6days); format: functional; conditions: route intraperitoneal
[24] = Ratio of survivors to the total mice in the test group; 0/4; format: functional
[25] = Ratio of survivors to the total mice in the test group; 4/8; format: functional
[26] = Ratio of survivors to the total mice in the test group; 0/47; format: functional
Mus musculus [27] = test: % increase in life span in L1210 leukemic mice was calculated at 20 mg/kg by ip administration; format: functional; conditions: route intraperitoneal
Mus musculus [28] = test: % increase in life span in mice was calculated at 15 mg/kg by ip administration; format: functional; conditions: route intraperitoneal
[29] = Inhibitory concentration against growth of cultured […] cells at 144 hrs.; format: functional; conditions: Homo sapiens
L1210 [30] = test: Percent of clonogenic L1210 cells to relative to control was determined after the treatment with the compound of 10 uM was for 48 hr; format: functional, Mus musculus
[31] = Inhibitory concentration against growth of cultured […] cells at 72 hrs.; format: functional; conditions: Homo sapiens
[32] = Ratio of survivors to the total mice in the test group; 0/10; format: functional
Mus musculus [33] = test: % increase in life span in L1210 leukemic mice was calculated at 15 mg/kg by ip administration; format: functional; conditions: route intraperitoneal
HL-60 [34] = test: Inhibitory concentration against growth of cultured HL-60 cells at 144 hrs.; format: functional, cell-based; conditions: Homo sapiens, HL-60, 144 h
Mus musculus [35] = test: Mean survival of mice with L1210 leukemia was evaluated on day 60 at 17.5 mg/kg by ip administration (schedule: Q8H,1-6days); format: functional; conditions: route intraperitoneal
Mus musculus [36] = test: Mean survival of mice with 10e 5 L1210 cells was evaluated on day 60 at 15 mg/kg by ip administration (schedule: Q12H,1-6days); format: functional; conditions: route intraperitoneal
HL-60 [37] = test: Inhibitory concentration against growth of cultured HL-60 cells at 72 hrs.; format: functional, cell-based; conditions: Homo sapiens, HL-60, 72 h
Mus musculus [38] = organism: Mus musculus; test: Ratio of survivors to the total mice in the test group; 0/13; format: functional
Mus musculus [39] = test: Mean survival of mice with L1210 leukemia was evaluated on day 60 at 20 mg/kg by ip administration (schedule: Q8H,1-4days); format: functional; conditions: route intraperitoneal
[40] = Ratio of survivors to the total mice in the test group; 9/16; format: functional
Mus musculus [41] = test: % increase in life span in L1210 leukemic mice was calculated at 17.5 mg/kg by ip administration; format: functional; conditions: route intraperitoneal
Mus musculus [42] = test: % increase in life span in L1210 leukemic mice was calculated at 10 mg/kg by ip administration; format: functional; conditions: route intraperitoneal

Q: With `CCNCCCCNCCCNCC` as the compound, how does the inhibition at 30 µM (L1210 [1]) read?
A: The inhibition at 30 µM was 61%.

Q: What about the IC50 (L1210 [2]) of the same compound?
A: Its IC50 is 10000 nM.

Q: With `CCNCCCNCCCNCCCCNCCCNCCCNCC` as the compound, how does the IC50 (L1210 [2]) read?
A: Its IC50 is 500 nM.

Q: What about the IC50 (L1210 [3]) of the same compound?
A: Its IC50 is 50000 nM.

Q: Which IC50 (L1210 [2]) does the source give for `CCCNCCCNCCCCNCCCNCCC` here?
A: The IC50 was 200 nM.

Q: And the IC50 (L1210 [3])?
A: The IC50 was 3000 nM.

Q: With `CCN(CC)CCCNCCCCNCCCN(CC)CC` as the compound, how does the inhibition at 50 µM (L1210 [4]) read?
A: The inhibition at 50 µM was 80%.

Q: And the IC50 (L1210 [2])?
A: The IC50 was 5000 nM.

Q: Which IC50 (L1210 [2]) does the source give for `CCNCCCN(CC)CCCCN(CC)CCCNCC` here?
A: The IC50 was 3000 nM.

Q: What about the IC50 (L1210 [3]) of the same compound?
A: Its IC50 is 100000 nM.

Q: For `CNCCCNCCCCNCCCNC`, which IC50 (L1210 [2]) is on record?
A: Its IC50 is 750 nM.

Q: And the control growth at 100 µM (L1210 [5])?
A: The control growth at 100 µM was 60%.

Q: Which inhibition at 30 µM (L1210 [6]) does the source give for `CCCNCCCCNCCCNCCC` here?
A: Its inhibition at 30 µM is 83%.

Q: What about the inhibition at 30 µM (L1210 [1]) of the same compound?
A: The inhibition at 30 µM was 88%.

Q: With `CCN(CCCN)CCCCN(CC)CCCN` as the compound, how does the inhibition (L1210 [7]) read?
A: The inhibition was “No inhibition”.

Q: What about the inhibition (L1210 [8]) of the same compound?
A: The inhibition was “No inhibition”.

Q: For `CCNCCCCCCCCCCCCNCC`, which inhibition (L1210 [9]) is on record?
A: The inhibition was “No inhibition”.

Q: And the inhibition (L1210 [10])?
A: Its inhibition is “No inhibition”.

Q: With `CCNCCCN1CCN(CCCNCC)CC1` as the compound, how does the inhibition (L1210 [11]) read?
A: The inhibition was “No inhibition”.

Q: And the inhibition (L1210 [12])?
A: Its inhibition is “No inhibition”.

Q: Which results are given for `CCNCCCNCCCCNCCCNCC` [BIS(ETHYL)SPERMINE]?
A: Clones (L1210 [13]): 2%; Mean survival (Mus musculus [14]): 9.7 days and 8.9 days; Mean survival (Mus musculus [15]): 35.3 days; Clones (L1210 [16]): 100%; ILS at 5 mg/kg (Mus musculus [17]): 25%; Mean survival (Mus musculus [18]): 14 days; S/T [19]: 0; Clones (L1210 [20]): 21%; Mean survival (Mus musculus [21]): 46.6 days; S/T [22]: 0; Mean survival (Mus musculus [23]): 12.3 days; S/T [24]: 0; IC50 (L1210 [2]): 100 nM; S/T [25]: 0.5; IC50 (L1210 [3]): 10000 nM; S/T [26]: 0; ILS (Mus musculus [27]): 57% and 103%; ILS at 15 mg/kg (Mus musculus [28]): 376%; IC50 [29]: 500 nM; Clones (L1210 [30]): 75%; IC50 [31]: > 40000 nM; S/T [32]: 0; ILS at 15 mg/kg (Mus musculus [33]): 55%; IC50 (HL-60 [34]): 300 nM; Mean survival (Mus musculus [35]): 52.3 days; Mean survival (Mus musculus [36]): 14.9 days; IC50 (HL-60 [37]): 10000 nM; S/T (Mus musculus [38]): 0; Mean survival (Mus musculus [39]): 18.1 days; S/T [40]: 0.562; ILS at 17.5 mg/kg (Mus musculus [41]): 439%; ILS at 10 mg/kg (Mus musculus [42]): 264%

Source: ChEMBL document CHEMBL1124224, “Synthetic polyamine analogues as antineoplastics” (J Med Chem, 1988)
